Source: ChEMBL document CHEMBL3988442, “University of Dundee, Small-Polar-MMV Screening Library” (2021)
Where “and” joins values, the source holds several entries; their conditions need not be identical. Equal values may be shown once.

Columns and labels:
[1] = test system: Wolbachia pipientis; assay: Anti-Wolbachia Cell-Based Screen; format: functional; conditions: for IC50: Wolbachia pipientis
[2] = molecular target: Polyketide synthase Pks13 (Mycobacterium tuberculosis (strain ATCC 25618 / H37Rv), UniProt I6X8D2); assay: Mycobacterium tuberculosis Polyketide synthase 13 Thioesterase (PKS13); format: functional
Polyketide synthase Pks13, sequence (I6X8D2 whole entry): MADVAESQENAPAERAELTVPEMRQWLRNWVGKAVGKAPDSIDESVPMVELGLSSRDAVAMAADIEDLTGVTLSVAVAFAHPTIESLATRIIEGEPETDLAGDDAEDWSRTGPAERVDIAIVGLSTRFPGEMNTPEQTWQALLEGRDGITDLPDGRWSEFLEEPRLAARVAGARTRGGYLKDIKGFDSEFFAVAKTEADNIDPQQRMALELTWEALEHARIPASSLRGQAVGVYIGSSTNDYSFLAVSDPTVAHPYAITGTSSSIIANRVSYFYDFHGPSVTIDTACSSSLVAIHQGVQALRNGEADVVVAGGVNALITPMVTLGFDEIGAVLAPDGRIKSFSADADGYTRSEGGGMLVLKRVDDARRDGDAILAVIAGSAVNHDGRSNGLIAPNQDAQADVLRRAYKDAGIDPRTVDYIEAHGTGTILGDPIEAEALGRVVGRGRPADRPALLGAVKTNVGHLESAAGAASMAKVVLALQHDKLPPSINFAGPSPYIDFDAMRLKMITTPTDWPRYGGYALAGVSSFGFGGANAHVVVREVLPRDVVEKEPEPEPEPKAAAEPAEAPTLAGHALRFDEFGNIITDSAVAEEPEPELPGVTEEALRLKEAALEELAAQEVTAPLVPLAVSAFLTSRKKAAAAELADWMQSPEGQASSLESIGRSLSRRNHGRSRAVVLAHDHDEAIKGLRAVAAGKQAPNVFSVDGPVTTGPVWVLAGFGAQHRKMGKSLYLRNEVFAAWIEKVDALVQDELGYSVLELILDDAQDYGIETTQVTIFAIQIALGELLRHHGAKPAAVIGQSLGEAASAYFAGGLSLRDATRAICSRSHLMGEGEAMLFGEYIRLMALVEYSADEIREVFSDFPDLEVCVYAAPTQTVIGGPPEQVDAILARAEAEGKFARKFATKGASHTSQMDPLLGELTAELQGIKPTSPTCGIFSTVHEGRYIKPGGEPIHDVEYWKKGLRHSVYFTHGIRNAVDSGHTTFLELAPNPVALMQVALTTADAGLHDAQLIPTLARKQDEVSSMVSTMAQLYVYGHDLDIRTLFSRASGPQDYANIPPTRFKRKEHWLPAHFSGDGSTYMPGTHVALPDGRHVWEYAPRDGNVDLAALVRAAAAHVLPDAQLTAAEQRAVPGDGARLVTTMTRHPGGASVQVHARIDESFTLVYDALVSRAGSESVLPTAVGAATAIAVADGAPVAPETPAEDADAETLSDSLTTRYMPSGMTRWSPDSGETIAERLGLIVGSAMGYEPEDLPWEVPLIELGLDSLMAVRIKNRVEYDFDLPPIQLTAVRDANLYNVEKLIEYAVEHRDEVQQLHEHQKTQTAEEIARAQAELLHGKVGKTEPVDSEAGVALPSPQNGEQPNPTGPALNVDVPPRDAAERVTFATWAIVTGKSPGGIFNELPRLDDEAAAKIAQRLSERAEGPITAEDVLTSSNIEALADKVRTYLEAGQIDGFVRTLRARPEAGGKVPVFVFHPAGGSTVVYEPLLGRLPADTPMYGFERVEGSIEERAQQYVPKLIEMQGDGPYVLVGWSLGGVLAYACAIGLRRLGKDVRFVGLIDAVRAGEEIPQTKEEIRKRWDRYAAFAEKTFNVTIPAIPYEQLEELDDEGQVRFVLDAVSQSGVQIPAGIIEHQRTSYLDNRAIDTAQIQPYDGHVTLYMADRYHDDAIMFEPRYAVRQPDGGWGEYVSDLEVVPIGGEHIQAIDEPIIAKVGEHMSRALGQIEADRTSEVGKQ

[3] = molecular target: Lysine--tRNA ligase (Plasmodium falciparum (isolate 3D7), UniProt Q8IDJ8); assay: Pf-KRS-1 (Lysyl-RNA Synthetase-1, KRS-1, cytosolic KRS) from Plasmodium falciparum. Inhibitor assay, 384 well plate, luminescence read.; format: functional
Lysine--tRNA ligase, sequence (Q8IDJ8 whole entry): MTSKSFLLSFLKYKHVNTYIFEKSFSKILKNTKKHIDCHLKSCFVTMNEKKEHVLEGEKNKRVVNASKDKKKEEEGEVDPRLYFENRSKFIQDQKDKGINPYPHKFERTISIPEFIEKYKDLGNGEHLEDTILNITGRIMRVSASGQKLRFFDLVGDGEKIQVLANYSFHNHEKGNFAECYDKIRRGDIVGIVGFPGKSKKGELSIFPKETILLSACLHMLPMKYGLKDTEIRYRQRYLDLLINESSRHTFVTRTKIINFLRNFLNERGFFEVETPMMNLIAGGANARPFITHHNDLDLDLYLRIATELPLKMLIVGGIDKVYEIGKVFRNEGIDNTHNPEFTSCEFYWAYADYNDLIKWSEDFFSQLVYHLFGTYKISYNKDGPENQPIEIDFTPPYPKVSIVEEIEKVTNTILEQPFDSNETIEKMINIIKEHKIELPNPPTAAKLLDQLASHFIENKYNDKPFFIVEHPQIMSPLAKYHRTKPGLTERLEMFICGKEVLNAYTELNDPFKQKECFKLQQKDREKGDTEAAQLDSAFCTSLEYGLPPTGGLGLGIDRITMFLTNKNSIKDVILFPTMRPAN

[4] = molecular target: T1, Coenzyme A biosynthesis bifunctional protein CoaBC (Mycobacterium tuberculosis (strain ATCC 25618 / H37Rv), UniProt P9WNZ1); assay: Biomol Green assay for MtCoaBC inhibitor, OD650 read; format: functional
T1 sequence (P9WNZ1 whole entry): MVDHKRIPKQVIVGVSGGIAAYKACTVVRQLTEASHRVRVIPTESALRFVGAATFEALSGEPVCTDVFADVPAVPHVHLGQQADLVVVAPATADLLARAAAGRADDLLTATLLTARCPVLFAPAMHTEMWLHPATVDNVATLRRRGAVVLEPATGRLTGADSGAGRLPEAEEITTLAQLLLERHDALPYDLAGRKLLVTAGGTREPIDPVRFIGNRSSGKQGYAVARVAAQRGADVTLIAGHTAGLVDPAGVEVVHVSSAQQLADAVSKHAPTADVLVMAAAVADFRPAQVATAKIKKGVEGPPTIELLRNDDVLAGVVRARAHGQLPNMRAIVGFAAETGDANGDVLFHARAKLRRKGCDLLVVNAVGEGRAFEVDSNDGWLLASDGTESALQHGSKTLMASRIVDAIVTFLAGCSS

[5] = test system: Leishmania donovani; assay: Leishmania intramacrophage assay; format: functional, organism-based; conditions: Leishmania donovani
[6] = microbe, parasite or virus in culture; conditions: Mycobacterium tuberculosis, 96 h, read-out: pIC50 (converted)
[7] = In vitro enzyme assay to detect hydrolysis of chlorophenol red-beta-D-[…] directly proportional to the number of Toxoplasma stably expressing beta-galactosidase; format: functional, organism-based, Toxoplasma gondii; conditions: for IC50: Toxoplasma gondii
[8] = microbe, parasite or virus in culture; conditions: Mycobacterium tuberculosis, 72 h, read-out: pIC50 (converted)
[9] = molecular target: Tryptophan--tRNA ligase (Mycobacterium tuberculosis (strain ATCC 25618 / H37Rv), UniProt P9WFT3); assay: Biochemical assay for Mt-TrpRS; format: functional
Tryptophan--tRNA ligase, sequence (P9WFT3 whole entry): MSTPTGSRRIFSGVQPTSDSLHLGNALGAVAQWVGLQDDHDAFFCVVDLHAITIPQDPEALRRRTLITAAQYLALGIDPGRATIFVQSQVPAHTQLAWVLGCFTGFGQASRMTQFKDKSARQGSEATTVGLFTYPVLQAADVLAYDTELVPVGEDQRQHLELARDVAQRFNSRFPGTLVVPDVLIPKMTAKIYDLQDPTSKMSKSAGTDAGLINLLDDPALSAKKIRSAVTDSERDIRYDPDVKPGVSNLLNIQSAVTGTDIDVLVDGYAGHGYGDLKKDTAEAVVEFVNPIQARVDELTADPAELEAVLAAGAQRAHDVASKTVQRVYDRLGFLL

[10] = molecular target: ClpP1P2 (Mycobacterium tuberculosis (strain ATCC 25618 / H37Rv), UniProt P9WPC3+P9WPC5); assay: in vitro assay to detect presence of AMC directly proportional to the activity of ClpP1P2. GHDDI collaboration.; format: functional
ClpP1P2, sequence (P9WPC5 whole entry): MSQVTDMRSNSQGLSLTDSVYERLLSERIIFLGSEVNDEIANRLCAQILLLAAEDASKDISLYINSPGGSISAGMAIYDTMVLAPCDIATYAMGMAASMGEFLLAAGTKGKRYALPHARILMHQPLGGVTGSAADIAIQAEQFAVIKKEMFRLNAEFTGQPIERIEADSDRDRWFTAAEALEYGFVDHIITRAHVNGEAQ
ClpP1P2, sequence (P9WPC3 whole entry): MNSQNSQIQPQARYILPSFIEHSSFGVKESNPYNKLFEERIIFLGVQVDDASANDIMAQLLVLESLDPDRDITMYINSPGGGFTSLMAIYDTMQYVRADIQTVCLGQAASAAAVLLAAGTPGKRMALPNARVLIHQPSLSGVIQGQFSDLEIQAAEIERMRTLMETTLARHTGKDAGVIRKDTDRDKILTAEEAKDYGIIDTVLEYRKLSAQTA

[11] = molecular target: T2, Histidine--tRNA ligase (Leishmania infantum, UniProt A4I591); assay: Leishmania infantum Histidine tRNA synthetase (LdHisRS); format: functional
T2 sequence (A4I591 whole entry): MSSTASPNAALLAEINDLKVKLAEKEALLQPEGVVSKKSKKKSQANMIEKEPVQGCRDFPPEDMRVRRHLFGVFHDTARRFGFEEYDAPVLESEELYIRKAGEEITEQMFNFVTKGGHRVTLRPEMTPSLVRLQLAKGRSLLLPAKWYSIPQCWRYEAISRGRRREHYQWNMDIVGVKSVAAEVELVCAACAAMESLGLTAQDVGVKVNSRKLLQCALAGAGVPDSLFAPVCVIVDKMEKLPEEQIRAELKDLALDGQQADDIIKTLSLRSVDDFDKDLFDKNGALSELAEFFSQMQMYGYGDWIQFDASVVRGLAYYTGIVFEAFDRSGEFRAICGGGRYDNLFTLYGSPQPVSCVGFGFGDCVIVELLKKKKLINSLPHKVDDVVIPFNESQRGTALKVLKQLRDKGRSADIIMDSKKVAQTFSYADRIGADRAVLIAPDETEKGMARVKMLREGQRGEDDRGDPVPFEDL

CCOCCCn1c(NC(=O)c2cnc(C)cn2)nc2ccccc21
pIC50 [1]: 5.233 | IC50 [1]: 5.75 µM

Cc1nn(C)c2nc(N3CCCCC3c3nccs3)sc12 (stereo not drawn)
pIC50 [1]: 7.075 | IC50 [1]: 0.156 µM

Cc1c[nH]c(CN2CCOC(c3ccc(Cl)cc3)C2)c(C)c1=O (stereo not drawn)
pIC50 [1]: 5.539 | IC50 [1]: 2.63 µM

COc1c(CNCC(O)COc2ccc3c(c2)OCO3)c(C)nn1C (stereo not drawn)
IC50 [1]: > 10 µM

CCc1c(C)nc2cc(-c3nccn3C)nn2c1N1CCCC(CO)C1 (stereo not drawn)
pIC50 [1]: 5.187 | IC50 [1]: 5.95 µM

CC(C)Cn1ncc2cc(C(=O)N(C)CCc3ccccc3)cnc21
IC50 [1]: > 10 µM

Cc1c(CNCC(C)Oc2cccnc2)c2ccccc2n1CC(N)=O (stereo not drawn)
IC50 [1]: > 10 µM

Cc1nnc(N2CCCC3(CN(Cc4nccs4)CCO3)C2)o1 (stereo not drawn)
IC50 [1]: > 10 µM

CCc1ncc2c(n1)CN(CC1CCCCO1)CC2 (stereo not drawn)
IC50 [2]: > 100 µM | IC50 [3]: > 50.1 µM

CCc1sc(C(=O)NC2CC2)cc1C
IC50 [1]: > 10 µM

CCn1cc(NC(=O)c2cccc(CN3C[C@@H](C)O[C@@H](C)C3)c2)nn1
pIC50 [1]: < 5 | IC50 [1]: 8.23 µM

O=C(NCCN1CCOCC1)N(CCCO)C1CCCc2ccccc21 (stereo not drawn)
IC50 [1]: > 10 µM

COc1cc(CNC(=O)c2c(C)noc2C)ccn1
IC50 [1]: > 10 µM

CCc1ccc(CN(C)Cc2nc(COc3ccccc3)no2)nc1
pIC50 [1]: 5.105 | IC50 [1]: 9.16 µM

CCC(C)n1cnc(S(=O)(=O)N(Cc2cccnc2)C(C)C)c1 (stereo not drawn)
IC50 [1]: > 10 µM

CC(CNC1CCN(c2ccccn2)CC1)Oc1ccc(F)cc1 (stereo not drawn)
IC50 [1]: > 10 µM

Cc1nn(C)c2nc(N3CCCCC3c3ccc(F)cc3)sc12 (stereo not drawn)
pIC50 [1]: 5.674 | IC50 [1]: 2.24 µM

Cc1cc(NC(=O)CN2CCn3c(nnc3C3CC3)C2)on1
IC50 [1]: > 10 µM

CC(C)[C@@H]1CN(C2CCN(Cc3ccccc3)CC2)C[C@H]1NS(C)(=O)=O
pIC50 [1]: 5.381 | IC50 [1]: 3.75 µM

CC(C)N(C(=O)c1csc(-c2ccoc2)n1)C1CCOCC1
IC50 [1]: > 10 µM

COc1ccccc1N1CCC(CNS(=O)(=O)c2cccc(C#N)c2)C1 (stereo not drawn)
IC50 [4]: > 30.2 µM | IC50 [2]: 49.7 µM and > 100 µM

COCCNc1nc2c(c(NCC3CCOC3)n1)CCNCC2 (stereo not drawn)
IC50 [2]: > 100 µM | IC50 [5]: > 50.1 µM

CCC(Nc1nc(C)nc2onc(C)c12)c1nc(C)c(C)s1 (stereo not drawn)
pIC50 [1]: 5.592 | IC50 [1]: 2.54 µM

Cc1cnc2c(C(=O)N3CCCC(OCc4ccccn4)C3)cnn2c1 (stereo not drawn)
IC50 [4]: > 30.2 µM | IC50 [2]: > 100 µM

CCCOc1ccc(Cl)cc1CNc1ncnc2oc(C)nc12
IC50 [6]: > 50.1 µM | IC50 [7]: 12.6 µM | IC50 [2]: 12.3 µM and 19.8 µM | IC50 [8]: > 50.1 µM

O=C(c1ccccc1)C1CCN(c2cncc(-n3cccn3)n2)CC1
IC50 [2]: 29 µM and 33.8 µM | IC50 [5]: > 50.1 µM

Cc1ncc2c(n1)CN(CCCc1nc3ccccc3o1)CC2
IC50 [2]: > 100 µM | IC50 [3]: > 50.1 µM

CC(C)(C)Nc1nc(-c2cccnc2)c(-c2ccnc(NCCO)n2)s1
IC50 [7]: 5.53 µM | IC50 [2]: > 100 µM

Cn1nccc1CCC(=O)N1CCCC(c2cnccn2)C1 (stereo not drawn)
IC50 [9]: > 195 µM | IC50 [2]: > 100 µM

CCCn1c(N2CCCC2)nc2c(C)nn(C)c2c1=O
IC50 [7]: > 50.1 µM | IC50 [2]: > 100 µM

O=C(c1ccc(COc2ccc(Cl)cc2)o1)N1N=CCC1(O)C(F)(F)F (stereo not drawn)
pIC50 [7]: 5.524 | IC50 [7]: 3.1 µM | IC50 [2]: 17.3 µM and 24.2 µM

COc1cnc(N2CC(N3CCOCC3)C2)nc1-c1ccnn1C
IC50 [4]: > 50.1 µM | IC50 [10]: > 100 µM | IC50 [11]: 5.05 µM and 10.5 µM | IC50 [2]: 52.6 µM and 31.8 µM

Cn1cc(NC(=O)c2cc[nH]n2)cc(Cl)c1=O
IC50 [6]: > 50.1 µM | IC50 [2]: > 100 µM | IC50 [8]: > 50.1 µM | IC50 [3]: > 50.1 µM

CCCOC(C)Cn1ccc2[nH]c(=O)c(C#N)cc2c1=O (stereo not drawn)
IC50 [10]: > 100 µM | IC50 [2]: 28.5 µM and 11.6 µM | IC50 [3]: > 50.1 µM

CNS(=O)(=O)c1csc(C(=O)N(C)Cc2ccccc2C)c1
IC50 [9]: > 195 µM | IC50 [2]: > 100 µM

Cc1ccc2[nH]c(CO[C@H]3CN(c4ccc(C#N)cn4)C[C@H]3F)nc2c1
IC50 [4]: > 50.1 µM | IC50 [10]: 7.25 µM | IC50 [11]: 27.1 µM and 37.7 µM | IC50 [2]: 26.6 µM | IC50 [3]: > 50.1 µM

CCOc1cc(/C=C/c2ncc(C(=O)O)s2)cc(Br)c1O
IC50 [4]: > 30.2 µM | IC50 [2]: > 100 µM and 24.3 µM

CC(C)c1cc(CN2CCC(CC(=O)O)CC2)no1
IC50 [9]: > 195 µM | IC50 [2]: 12.3 µM and 7.76 µM

CC(C)c1cc(N2CCC(N)CC2)n2nccc2n1
IC50 [2]: > 100 µM | IC50 [5]: > 50.1 µM
